Here are results for 17 molecules from patent publication US4818761A, “2-(4-pyridylaminomethyl)-benzimidazole derivatives having antiviral activity” (priority 1986, dated 1989).

Converted amounts (≈) assume the structure as drawn.

The term IC50 denotes the midpoint of a concentration-inhibition curve. Usually CC50 stands for the concentration at which the toxic effect on the cells reaches its halfway point. A lower CC50 goes with greater toxicity to the cells.

The first data set relates to poliovirus type 2 (Polio2). As to the kind of experiment: microbe, parasite or virus in culture. To be noted: Enterovirus C, LLC-MK2, read-out: IC50 Polio2. Format: cell-based.
As for `CCc1ccc(-n2c(CNc3ccncc3)nc3ccccc32)cc1` [LXVI], the IC50 is above 100 µg/mL.
Consider `CCCc1ccc2[nH]c(CNc3ccncc3)nc2c1` [V], for which the IC50 was above 100 µg/mL.
On the same count and under the same terms, the figure for `CCCCCCn1c(CNc2ccncc2)nc2ccccc21` [XVIII] is above 100 µg/mL; for `Cc1ccc(-n2c(CNc3ccncc3)nc3ccccc32)cc1` [XXII] it is above 10 µg/mL; for `Cn1c(CNc2ccncc2)nc2ccc(Cl)cc21` [XXXIX] it is above 100 µg/mL.
Consider `Fc1cc2nc(CNc3ccncc3)[nH]c2cc1Cl` [XXXV], for which the IC50 was above 100 µg/mL.
Take `Cc1cc2nc(CNc3ccncc3)[nH]c2cc1F` [XXX]: the IC50 is above 100 µg/mL.

A further data set relates to enterovirus type 70 (EV70). The data set can be described thus: Inhibition of EV70 plaque formation in LLC-MK2 cells. Format: cell-based. To be noted: CI = CD50 (LLC-MK2)/IC50 (plaque).
For `CCCCc1ccc2[nH]c(CNc3ccncc3)nc2c1` [VII], the “CI EV70 (C)/(A)” value turned out to be 3.
On the same count and under the same terms, the figure for `CCCc1ccc2[nH]c(CNc3ccncc3)nc2c1` [V] is 93.
For `CCCCCCn1c(CNc2ccncc2)nc2ccccc21` [XVIII], the “CI EV70 (C)/(A)” value worked out at 16.
For `Cc1ccc(-n2c(CNc3ccncc3)nc3ccccc32)cc1` [XXII], the “CI EV70 (C)/(A)” value is on record as 2,719.
Regarding `Cn1c(CNc2ccncc2)nc2ccc(Cl)cc21` [XXXIX], the “CI EV70 (C)/(A)” value is above 2.
Same read-out and setting: the figure for `Fc1cc2nc(CNc3ccncc3)[nH]c2cc1Cl` [XXXV] is above 15; for `Cc1cc2nc(CNc3ccncc3)[nH]c2cc1F` [XXX] it is above 8.

The same data set, now with this note: Enterovirus D; plaque reduction, LLC-MK2 cells, 33° C.
Molecule `CCc1ccc(-n2c(CNc3ccncc3)nc3ccccc32)cc1` [LXVI] displayed an IC50 above 100 µg/mL.
Molecule `CCCCc1ccc2[nH]c(CNc3ccncc3)nc2c1` [VII] yielded an IC50 of 17.8 µg/mL (≈ 63.5 µM).
On the same count and under the same terms, the figure for `CCCc1ccc2[nH]c(CNc3ccncc3)nc2c1` [V] is 3.8 µg/mL (≈ 14.3 µM); for `CCCCCCn1c(CNc2ccncc2)nc2ccccc21` [XVIII] it is 44 µg/mL (≈ 143 µM); for `Cc1ccc(-n2c(CNc3ccncc3)nc3ccccc32)cc1` [XXII] it is 0.52 µg/mL (≈ 1.65 µM).
Regarding `Cn1c(CNc2ccncc2)nc2ccc(Cl)cc21` [XXXIX], the IC50 amounted to 50 µg/mL (≈ 183 µM).
`Fc1cc2nc(CNc3ccncc3)[nH]c2cc1Cl` [XXXV] yielded an IC50 of 6.8 µg/mL (≈ 24.6 µM).
Regarding `Cc1cc2nc(CNc3ccncc3)[nH]c2cc1F` [XXX], half-maximal inhibition (IC50) was put at 12 µg/mL (≈ 46.8 µM).

System in the next data set: not listed separately
The data set can be described thus: in vitro. The conditions noted are these: monkey, llc-mk2 cells.
For `c1ccc(-c2ccc3[nH]c(CNc4ccncc4)nc3c2)cc1` [IX], the 50% cytotoxic concentration (CC50) was above 100 µg/mL.
On to `CCc1ccc(-n2c(CNc3ccncc3)nc3ccccc32)cc1` [LXVI], for which the CC50 is above 100 µg/mL.
`CC(C)(C)c1ccc2[nH]c(CNc3ccncc3)nc2c1` [VIII]: the CC50 was above 100 µg/mL.
The molecule `CCCCc1ccc2[nH]c(CNc3ccncc3)nc2c1` [VII] yielded a CC50 of 56.2 µg/mL (≈ 200 µM).
Still for that read-out and setting: the same measure for `CCCc1ccc2[nH]c(CNc3ccncc3)nc2c1` [V]: 354 µg/mL (≈ 1330 µM); for `CC(C)n1c(CNc2ccncc2)nc2ccccc21.Cl` [XIII, 1-isopropyl-2-(4-pyridylaminomethyl)benzimidazole hydrochloride]: above 100 µg/mL.
`CC=Cn1c(CNc2ccncc2)nc2ccccc21` [XIV] gave a CC50 above 2000 µg/mL.
The molecule `CCCCCCCCn1c(CNc2ccncc2)nc2ccccc21` [XIX] yielded a CC50 of 354 µg/mL (≈ 1050 µM).
On to `CCn1c(CNc2ccncc2)nc2ccccc21` [XI], for which the midpoint of cytotoxicity, the CC50, lay at 5660 µg/mL (≈ 22400 µM).
The molecule `CCCCCCn1c(CNc2ccncc2)nc2ccccc21` [XVIII] displayed a CC50 of 707 µg/mL (≈ 2290 µM).
Consider `Cc1ccc(-n2c(CNc3ccncc3)nc3ccccc32)cc1` [XXII], for which the CC50 was found to be 1410 µg/mL (≈ 4500 µM).
On the same count and under the same terms, the figure for `COc1cc2nc(CNc3ccncc3)[nH]c2cc1OC` [XXXIV] is above 100 µg/mL.
As for `Cn1c(CNc2ccncc2)nc2ccc(Cl)cc21` [XXXIX], the CC50 is above 100 µg/mL.
In turn, `Cc1ccc2c(c1)nc(CNc1ccncc1)n2C` [XXXVI] displayed a CC50 above 100 µg/mL.
`Fc1cc2nc(CNc3ccncc3)[nH]c2cc1Cl` [XXXV] returned a CC50 above 100 µg/mL.
Consider `Cc1cc2nc(CNc3ccncc3)[nH]c2cc1F` [XXX], for which the CC50 is above 100 µg/mL.
On the same count and under the same terms, the figure for `OCCn1c(CNc2ccncc2)nc2ccccc21` [XX] is above 2000 µg/mL.

For another data set, the system named is rhinovirus type 14 (HRV14). As to the kind of experiment: Inhibition of HRV14 plaque formation in HeLa cells. The data set is classed as cell-based. To be noted: Enterovirus, HRV14; plaque reduction, HeLa cells, 33° C.
In the case of `CCc1ccc(-n2c(CNc3ccncc3)nc3ccccc32)cc1` [LXVI], the IC50 is above 100 µg/mL.
On to `Cc1ccc(-n2c(CNc3ccncc3)nc3ccccc32)cc1` [XXII], for which the IC50 came out at 38 µg/mL (≈ 121 µM).
With `Cn1c(CNc2ccncc2)nc2ccc(Cl)cc21` [XXXIX], the IC50 is above 50 µg/mL.
`Fc1cc2nc(CNc3ccncc3)[nH]c2cc1Cl` [XXXV]: the IC50 stood at 15.5 µg/mL (≈ 56 µM).
Still for that read-out and setting: the figure for `Cc1cc2nc(CNc3ccncc3)[nH]c2cc1F` [XXX] is 8.6 µg/mL (≈ 33.6 µM).

In a further data set the test system is enterovirus type 70 (EV70). The data set can be described thus: Inhibition of EV70 cytopathogenic effect (CPE) in LLC-MK2 cells. Format: cell-based. The conditions noted are these: Enterovirus D; * Virus CPE inhibition assay, LLC-MK2 cells, 33° C. (In general: Damage to the host cells serves as the signal in cytopathic effect assays.)
The molecule `c1ccc(-c2ccc3[nH]c(CNc4ccncc4)nc3c2)cc1` [IX] displayed an IC50 above 100 µg/mL.
`CC(C)(C)c1ccc2[nH]c(CNc3ccncc3)nc2c1` [VIII] came in with an IC50 above 100 µg/mL.
`CC(C)n1c(CNc2ccncc2)nc2ccccc21.Cl` [XIII, 1-isopropyl-2-(4-pyridylaminomethyl)benzimidazole hydrochloride]: the IC50 is above 100 µg/mL.
Turning to `CC=Cn1c(CNc2ccncc2)nc2ccccc21` [XIV], the IC50 was above 100 µg/mL.
On to `CCCCCCCCn1c(CNc2ccncc2)nc2ccccc21` [XIX], for which the IC50 was above 100 µg/mL.
In turn, `CCn1c(CNc2ccncc2)nc2ccccc21` [XI] showed an IC50 above 100 µg/mL.
On to `COc1cc2nc(CNc3ccncc3)[nH]c2cc1OC` [XXXIV], for which the IC50 was above 100 µg/mL.
Same read-out and setting: the same measure for `Cc1ccc2c(c1)nc(CNc1ccncc1)n2C` [XXXVI]: above 100 µg/mL; for `OCCn1c(CNc2ccncc2)nc2ccccc21` [XX]: above 100 µg/mL.

In the next data set the test system is coxsackievirus type B4 (CB4). The data set can be described thus: Inhibition of CB4 plaque formation in LLC-MK2 cells. The data set is classed as cell-based. To be noted: CI = CD50 (LLC-MK2)/IC50 (plaque).
As for `CCc1ccc(-n2c(CNc3ccncc3)nc3ccccc32)cc1` [LXVI], the “CI CB4 (C)/(A)” value is above 37.
Turning to `CC(C)n1c(CNc2ccncc2)nc2ccccc21.Cl` [XIII, 1-isopropyl-2-(4-pyridylaminomethyl)benzimidazole hydrochloride], the “CI CB4 (C)/(A)” value is on record as above 1.
With `CC=Cn1c(CNc2ccncc2)nc2ccccc21` [XIV], the “CI CB4 (C)/(A)” value is on record as above 36.
The same measure, in the same setting: the same measure for `CCCCCCCCn1c(CNc2ccncc2)nc2ccccc21` [XIX]: 24; for `CCn1c(CNc2ccncc2)nc2ccccc21` [XI]: 1,768; for `CCCCCCn1c(CNc2ccncc2)nc2ccccc21` [XVIII]: 544.
Consider `Cc1ccc(-n2c(CNc3ccncc3)nc3ccccc32)cc1` [XXII], for which the “CI CB4 (C)/(A)” value was 2,946.
In the case of `Cn1c(CNc2ccncc2)nc2ccc(Cl)cc21` [XXXIX], the “CI CB4 (C)/(A)” value is above 1.
Turning to `Fc1cc2nc(CNc3ccncc3)[nH]c2cc1Cl` [XXXV], the “CI CB4 (C)/(A)” value was above 3.

Still in this data set, the particulars now being: Coxsackievirus; plaque reduction, LLC-MK2 cells, 37° C.
`CCc1ccc(-n2c(CNc3ccncc3)nc3ccccc32)cc1` [LXVI] gave an IC50 of 2.7 µg/mL (≈ 8.22 µM).
For the molecule `CCCc1ccc2[nH]c(CNc3ccncc3)nc2c1` [V], the IC50 was above 100 µg/mL.
Same read-out and setting: the figure for `CC(C)n1c(CNc2ccncc2)nc2ccccc21.Cl` [XIII, 1-isopropyl-2-(4-pyridylaminomethyl)benzimidazole hydrochloride] is 85 µg/mL.
The same measure, in the same setting: the same measure for `CC=Cn1c(CNc2ccncc2)nc2ccccc21` [XIV]: 56.2 µg/mL (≈ 213 µM).
Same read-out and setting: the figure for `CCCCCCCCn1c(CNc2ccncc2)nc2ccccc21` [XIX] is 14.8 µg/mL (≈ 44 µM); for `CCn1c(CNc2ccncc2)nc2ccccc21` [XI] it is 3.2 µg/mL (≈ 12.7 µM).
`CCCCCCn1c(CNc2ccncc2)nc2ccccc21` [XVIII] had an IC50 of 1.3 µg/mL (≈ 4.21 µM).
For `Cc1ccc(-n2c(CNc3ccncc3)nc3ccccc32)cc1` [XXII], inhibition was half-maximal at 0.48 µg/mL (≈ 1.53 µM) (IC50).
Molecule `Cn1c(CNc2ccncc2)nc2ccc(Cl)cc21` [XXXIX] had an IC50 of 82 µg/mL (≈ 301 µM).
Turning to `Fc1cc2nc(CNc3ccncc3)[nH]c2cc1Cl` [XXXV], the IC50 was found to be 34 µg/mL (≈ 123 µM).
Consider `Cc1cc2nc(CNc3ccncc3)[nH]c2cc1F` [XXX], for which the IC50 is above 50 µg/mL.
Molecule `OCCn1c(CNc2ccncc2)nc2ccccc21` [XX] gave an IC50 above 100 µg/mL.
